Experimental data: ChEMBL document CHEMBL1201862, “PubChem BioAssay data set” (2004)
Calls of active or inactive are those of the source.

Key:
[1] = inhibitors of firefly luciferase expression or activity, dose response, H4 neuroglioma cells, luminescence (AID 1990); type: functional, cell-based
Paired box protein Pax-8 = Paired box protein Pax-8 (Homo sapiens, UniProt Q06710); assay: inhibitors of PAX8-driven TPO luciferase reporter, dose response, RMG-I cells, cherry-pick (AID 687027); type: functional, cell-based;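 further: luciferase reporter driven by Pax8 target thyroperoxidase promoter measured by SteadyGlo luminescence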
Sequence of Paired box protein Pax-8 (Q06710 whole entry): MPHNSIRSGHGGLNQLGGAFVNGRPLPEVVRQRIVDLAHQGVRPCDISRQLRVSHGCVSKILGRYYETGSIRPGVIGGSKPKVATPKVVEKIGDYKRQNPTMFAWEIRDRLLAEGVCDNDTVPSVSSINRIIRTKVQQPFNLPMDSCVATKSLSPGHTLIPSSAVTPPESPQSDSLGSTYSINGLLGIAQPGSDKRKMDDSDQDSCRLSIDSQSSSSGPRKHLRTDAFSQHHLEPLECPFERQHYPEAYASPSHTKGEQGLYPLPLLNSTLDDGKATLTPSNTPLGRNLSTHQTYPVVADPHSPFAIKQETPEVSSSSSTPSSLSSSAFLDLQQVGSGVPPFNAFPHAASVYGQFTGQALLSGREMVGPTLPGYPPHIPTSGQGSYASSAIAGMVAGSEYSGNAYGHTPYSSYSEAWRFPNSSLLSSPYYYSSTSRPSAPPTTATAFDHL

INS1 = assay: beta cell apoptosis inhibitors, cytokine rescue, dose response, luminescence, retest (AID 449756); type: functional, cell-based; conditions: Rattus norvegicus;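 further: cell death triggered by IL-1 beta plus TNF-alpha plus IFN-gamma mixture; protective hits raise ATP signal compared with cytokine alone wells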
[2] = target: T1, Sentrin-specific protease 8 (Homo sapiens, UniProt Q96LD8); type: functional
T1 sequence (Q96LD8 whole entry): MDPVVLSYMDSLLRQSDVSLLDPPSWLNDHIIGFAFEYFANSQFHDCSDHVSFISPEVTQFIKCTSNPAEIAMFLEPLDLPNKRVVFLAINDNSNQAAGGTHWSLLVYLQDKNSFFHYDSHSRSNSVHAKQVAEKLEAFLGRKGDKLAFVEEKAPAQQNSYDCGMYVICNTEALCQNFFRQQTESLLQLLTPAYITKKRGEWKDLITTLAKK

[3] = target: Voltage-gated N-type calcium channel alpha-1B subunit/Amyloid beta A4 precursor protein-binding family A member 1 (Homo sapiens, UniProt Q00975+Q02410); type: protein assay
Sequence of Voltage-gated N-type calcium channel alpha-1B subunit/Amyloid beta A4 precursor protein-binding family A member 1 (Q00975 whole entry): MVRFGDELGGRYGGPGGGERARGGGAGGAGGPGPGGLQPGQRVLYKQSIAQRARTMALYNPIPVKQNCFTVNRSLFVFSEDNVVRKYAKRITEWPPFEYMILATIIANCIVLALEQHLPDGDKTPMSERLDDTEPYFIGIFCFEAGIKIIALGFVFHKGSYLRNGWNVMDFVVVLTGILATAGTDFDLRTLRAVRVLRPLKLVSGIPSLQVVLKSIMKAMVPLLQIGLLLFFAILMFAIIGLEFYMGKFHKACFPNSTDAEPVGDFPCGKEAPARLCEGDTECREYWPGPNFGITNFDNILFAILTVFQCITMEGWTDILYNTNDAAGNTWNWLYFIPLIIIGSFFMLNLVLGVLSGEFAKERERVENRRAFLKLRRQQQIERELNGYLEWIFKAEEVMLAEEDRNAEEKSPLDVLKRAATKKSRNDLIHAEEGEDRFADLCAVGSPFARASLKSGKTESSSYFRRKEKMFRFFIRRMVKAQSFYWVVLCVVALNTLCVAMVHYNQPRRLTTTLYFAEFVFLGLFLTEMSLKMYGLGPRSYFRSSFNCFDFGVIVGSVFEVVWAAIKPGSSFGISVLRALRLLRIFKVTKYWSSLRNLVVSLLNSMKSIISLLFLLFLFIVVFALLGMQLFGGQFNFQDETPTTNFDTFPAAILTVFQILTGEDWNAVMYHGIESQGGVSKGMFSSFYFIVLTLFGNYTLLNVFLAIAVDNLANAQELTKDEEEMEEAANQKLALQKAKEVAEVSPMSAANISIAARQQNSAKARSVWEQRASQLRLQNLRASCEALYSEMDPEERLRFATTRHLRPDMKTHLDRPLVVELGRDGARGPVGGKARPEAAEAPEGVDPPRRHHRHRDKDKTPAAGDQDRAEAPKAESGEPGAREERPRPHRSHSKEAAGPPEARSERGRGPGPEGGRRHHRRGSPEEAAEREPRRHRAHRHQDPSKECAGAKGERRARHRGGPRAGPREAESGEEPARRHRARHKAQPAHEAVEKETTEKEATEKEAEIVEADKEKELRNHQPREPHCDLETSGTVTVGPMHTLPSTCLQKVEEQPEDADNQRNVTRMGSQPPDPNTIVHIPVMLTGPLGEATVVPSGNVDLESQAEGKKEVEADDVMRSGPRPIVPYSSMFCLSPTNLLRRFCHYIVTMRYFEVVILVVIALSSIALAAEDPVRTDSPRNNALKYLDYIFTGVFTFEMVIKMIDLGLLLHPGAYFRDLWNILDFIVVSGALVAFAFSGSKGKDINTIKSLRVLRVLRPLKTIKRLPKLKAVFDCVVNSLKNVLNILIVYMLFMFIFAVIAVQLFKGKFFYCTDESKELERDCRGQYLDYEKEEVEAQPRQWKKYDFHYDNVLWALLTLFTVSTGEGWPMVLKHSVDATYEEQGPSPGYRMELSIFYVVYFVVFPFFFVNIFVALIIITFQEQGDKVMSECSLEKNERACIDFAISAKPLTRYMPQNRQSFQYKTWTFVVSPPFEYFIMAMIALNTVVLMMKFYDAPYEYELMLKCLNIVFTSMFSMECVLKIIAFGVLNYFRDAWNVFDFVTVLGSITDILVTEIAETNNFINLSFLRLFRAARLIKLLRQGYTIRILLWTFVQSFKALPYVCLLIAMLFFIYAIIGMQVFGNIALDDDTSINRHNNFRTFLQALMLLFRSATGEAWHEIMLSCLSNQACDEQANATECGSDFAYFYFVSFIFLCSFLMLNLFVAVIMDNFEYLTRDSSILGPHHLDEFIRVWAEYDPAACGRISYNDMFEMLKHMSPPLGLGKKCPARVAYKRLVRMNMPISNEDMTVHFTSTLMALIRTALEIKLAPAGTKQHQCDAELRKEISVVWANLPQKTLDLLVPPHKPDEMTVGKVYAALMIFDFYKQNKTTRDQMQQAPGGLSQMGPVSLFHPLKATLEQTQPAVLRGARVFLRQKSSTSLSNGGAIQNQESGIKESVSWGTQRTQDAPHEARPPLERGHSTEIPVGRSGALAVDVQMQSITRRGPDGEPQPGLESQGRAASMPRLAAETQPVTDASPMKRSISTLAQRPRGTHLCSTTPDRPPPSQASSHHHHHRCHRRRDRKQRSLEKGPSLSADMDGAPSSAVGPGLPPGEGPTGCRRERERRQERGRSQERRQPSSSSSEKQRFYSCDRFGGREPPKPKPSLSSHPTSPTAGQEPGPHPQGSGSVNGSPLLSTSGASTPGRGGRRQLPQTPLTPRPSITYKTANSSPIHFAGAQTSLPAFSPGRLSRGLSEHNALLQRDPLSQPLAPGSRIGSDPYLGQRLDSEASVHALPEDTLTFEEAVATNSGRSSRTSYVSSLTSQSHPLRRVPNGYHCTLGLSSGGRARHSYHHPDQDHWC
Sequence of Voltage-gated N-type calcium channel alpha-1B subunit/Amyloid beta A4 precursor protein-binding family A member 1 (Q02410 whole entry): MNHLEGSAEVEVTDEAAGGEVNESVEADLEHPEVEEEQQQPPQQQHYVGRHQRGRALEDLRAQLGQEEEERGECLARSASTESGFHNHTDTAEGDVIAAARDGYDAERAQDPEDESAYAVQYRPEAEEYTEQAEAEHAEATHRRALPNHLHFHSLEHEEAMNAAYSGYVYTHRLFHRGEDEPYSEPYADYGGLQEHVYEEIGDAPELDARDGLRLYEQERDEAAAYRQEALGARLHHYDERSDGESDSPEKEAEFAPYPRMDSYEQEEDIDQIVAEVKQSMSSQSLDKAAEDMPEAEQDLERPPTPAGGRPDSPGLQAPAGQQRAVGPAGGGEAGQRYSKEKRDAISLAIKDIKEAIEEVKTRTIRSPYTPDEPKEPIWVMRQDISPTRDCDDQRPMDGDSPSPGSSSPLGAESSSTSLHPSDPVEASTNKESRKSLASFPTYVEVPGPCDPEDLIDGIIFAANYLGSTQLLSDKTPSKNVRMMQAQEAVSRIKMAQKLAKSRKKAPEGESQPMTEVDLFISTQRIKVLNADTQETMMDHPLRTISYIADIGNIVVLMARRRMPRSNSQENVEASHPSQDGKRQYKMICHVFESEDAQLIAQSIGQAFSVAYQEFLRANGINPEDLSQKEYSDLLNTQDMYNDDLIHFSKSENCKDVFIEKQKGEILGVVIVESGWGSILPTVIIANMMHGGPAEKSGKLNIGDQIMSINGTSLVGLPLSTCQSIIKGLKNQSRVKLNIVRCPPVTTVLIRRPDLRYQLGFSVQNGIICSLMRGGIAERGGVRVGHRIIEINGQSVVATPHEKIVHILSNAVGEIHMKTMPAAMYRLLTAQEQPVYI

[4] = target: T1, Sentrin-specific protease 8; type: functional; remark: listed apart in the source
[5] = target: T2, Zinc finger protein mex-5 (Caenorhabditis elegans, UniProt Q9XUB2); assay: MEX-5/TCR-2 RNA interaction inhibitors, dose response, biochemical, C. elegans, fluorescence polarization (AID 1960)
T2 sequence (Q9XUB2 whole entry): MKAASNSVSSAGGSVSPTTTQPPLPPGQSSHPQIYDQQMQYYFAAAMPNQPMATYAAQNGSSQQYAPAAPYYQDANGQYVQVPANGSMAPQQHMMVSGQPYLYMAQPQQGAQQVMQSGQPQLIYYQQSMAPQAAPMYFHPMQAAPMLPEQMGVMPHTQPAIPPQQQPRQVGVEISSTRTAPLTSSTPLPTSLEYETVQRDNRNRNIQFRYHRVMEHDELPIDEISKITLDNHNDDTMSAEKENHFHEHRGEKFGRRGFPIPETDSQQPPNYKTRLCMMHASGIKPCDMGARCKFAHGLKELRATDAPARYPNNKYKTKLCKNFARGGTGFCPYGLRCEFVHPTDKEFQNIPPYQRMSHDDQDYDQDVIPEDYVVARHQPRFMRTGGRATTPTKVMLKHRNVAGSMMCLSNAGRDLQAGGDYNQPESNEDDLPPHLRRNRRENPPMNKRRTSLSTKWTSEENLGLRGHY

SUMO-activating enzyme = SUMO-activating enzyme (Homo sapiens, UniProt Q9UBT2); assay: SUMOylation inhibitor hit validation, confirmation, SUMOylation inhibitor project, biochemical, AlphaScreen (AID 2018); type: functional
cells = type: functional, cell-based
Albumin = Albumin (Bos taurus, UniProt P02769); assay: Counterscreen for inhibitors of T-cell receptor (TCR)-CD3 interaction: Fluorescence-based biochemical high throughput dose response assay to identify inhibitors of T-cell receptor (TCR)-CD3 interaction using a TAMRA-labeled BSA probe.; type: functional
Sequence of Albumin (P02769 whole entry): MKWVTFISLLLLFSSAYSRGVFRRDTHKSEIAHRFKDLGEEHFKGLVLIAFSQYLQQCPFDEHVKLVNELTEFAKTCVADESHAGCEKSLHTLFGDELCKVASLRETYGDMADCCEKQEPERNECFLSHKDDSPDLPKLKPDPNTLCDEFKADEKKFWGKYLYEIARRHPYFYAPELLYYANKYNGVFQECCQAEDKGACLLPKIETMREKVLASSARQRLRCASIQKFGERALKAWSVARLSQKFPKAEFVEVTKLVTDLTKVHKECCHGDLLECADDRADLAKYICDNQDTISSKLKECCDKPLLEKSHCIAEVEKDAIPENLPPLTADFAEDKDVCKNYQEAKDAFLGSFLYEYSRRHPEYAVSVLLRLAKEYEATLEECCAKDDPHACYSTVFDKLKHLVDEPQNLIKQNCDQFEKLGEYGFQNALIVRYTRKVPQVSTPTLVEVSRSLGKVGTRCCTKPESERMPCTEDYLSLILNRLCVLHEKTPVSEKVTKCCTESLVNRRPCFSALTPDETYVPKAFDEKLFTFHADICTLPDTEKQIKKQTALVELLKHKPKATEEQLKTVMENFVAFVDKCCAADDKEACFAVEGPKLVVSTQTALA

[6] = target: T3, Long-chain-fatty-acid--AMP ligase FadD28 (Mycobacterium tuberculosis, UniProt P9WQ59); assay: Fluorescence polarization aasay to screen for inhibitors that compete for the binding of FadD28 to a bisubstrate Measured in Biochemical System Using Plate Reader - 2147-01_Inhibitor_Dose_CherryPick_Activity.; type: functional, Mycobacterium tuberculosis H37Rv
T3 sequence (P9WQ59 whole entry): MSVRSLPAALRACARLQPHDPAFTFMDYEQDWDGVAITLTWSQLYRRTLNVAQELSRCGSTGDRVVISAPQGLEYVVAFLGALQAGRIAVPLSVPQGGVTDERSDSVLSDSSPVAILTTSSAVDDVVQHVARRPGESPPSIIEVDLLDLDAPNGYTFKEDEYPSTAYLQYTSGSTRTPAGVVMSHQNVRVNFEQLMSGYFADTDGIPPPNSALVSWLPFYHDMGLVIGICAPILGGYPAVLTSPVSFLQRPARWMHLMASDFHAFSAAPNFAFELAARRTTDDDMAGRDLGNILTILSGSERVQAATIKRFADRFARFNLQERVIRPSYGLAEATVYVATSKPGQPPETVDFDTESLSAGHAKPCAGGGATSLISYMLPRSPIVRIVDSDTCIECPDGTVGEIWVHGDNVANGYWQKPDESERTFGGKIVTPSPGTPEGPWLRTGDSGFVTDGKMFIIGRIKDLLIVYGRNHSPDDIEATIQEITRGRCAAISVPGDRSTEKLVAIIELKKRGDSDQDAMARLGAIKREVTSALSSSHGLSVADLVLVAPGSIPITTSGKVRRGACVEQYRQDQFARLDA

O=C(Nc1cccc(NC(=O)c2ccccc2Cl)c1)c1ccc([N+](=O)[O-])o1
EC50 [1]: 8.33 µM (active)
AC50 (Paired box protein Pax-8): 2.48 µM (active)
AC50 (INS1): 7.35 µM (active)

c1coc(-c2nnc(-c3ccco3)nn2)c1
IC50 [2]: 5.41 µM (active)
IC50 [3]: 17.7 µM (active)
IC50 [4]: 9.28 µM (active)
EC50 [5]: 7.69 µM (active)
IC50 (SUMO-activating enzyme): 0.99 µM (active)

Cn1c(O)c(/C=N/NC(=O)c2cc3ccccc3cc2O)c2ccccc21
EC50 (cells): 4.07 µM (active)
IC50 (Albumin): > 94.1 µM (inactive)
AC50 [6]: > 100 µM (inactive)
